From patent US6569631B1, “Microplate thermal shift assay for ligand development using 5-(4″dimethylaminophenyl)-2-(4′-phenyl)oxazole derivative fluorescent dyes” (3-Dimensional Pharmaceuticals, Inc., priority 1998, dated 2003)

Legend:
[1] = biological target: T1, heparin binding site of human α-thrombin (Homo sapiens, UniProt P00734); assay: Microplate thermal shift assay, ligands binding to the heparin binding site, turbidity signal
T1 construct: A stock human α-thrombin solution (1.56 mg/mL) from Enzyme Research Labs; purchased Enzyme Research Labs
Text: Assays for ligands that bind to the heparin binding site of human α-thrombin are more difficult to perform than assays for ligands that bind to the active site of human α-thrombin. At the heparin binding site, no substrate is hydrolyzed, so no spectrophotometric signal can be amplified for instrumental detection. Heparin activity is usually estimated in biological clotting time assays. […] Thus, heparin binding to human α-thrombin represents the kind of challenge encountered with the vast majority of non-enzyme receptor/ligand binding events, which are commonly observed for hormone/receptor interactions, repressor/DNA interactions, neurotransmitter/receptor interactions, etc. Several heparin-like sulfated oligosaccharides and sulfated naphthalene compounds were assayed by the microplate thermal shift assay. Using the thermal shift assay, it was possible to use a single compound per well to quickly rank the compounds in order of increasing binding affinity, with Kd's ranging over three orders of magnitude (see Table 4). Like the experiment in Example 1, the thermal shift assay results agreed closely with the results obtained through an alternative method, which required a series of laborious (15 to 20 single determinations) fluorescence quench assays over a wide range of concentrations of low MW heparin (Olson, S. T. et al., J. Biol. Chem. 266:6342-6352 (1991)).

[2] = biological target: T2, acidic fibroblast growth factor (aFGF) (Homo sapiens, UniProt P05230); assay: Microplate thermal shift assay for ligands binding to aFGF, turbidity signal; details: turbidity signal; aFGF 0.25 mg/mL; ligand 47-200 μM
T2 construct: host or cells: E. coli
Text: The second therapeutic receptor tested in the microplate thermal shift assay was acidic fibroblast growth factor (aFGF), a growth factor that plays a key role in angiogenesis (Folkman, J. et al., J. Biol. Chem. 267:1.0931-10934 (1992)). A synthetic gene for this protein was purchased from R&D Systems (Minneapolis, Minn.), and was cloned and expressed in E. coli using methods similar to those described for basic fibroblast growth factor (bFGF) (Thompson, L. D. et al., Biochemistry 33:3831-3840 (1994); Pantoliano, M. W. et al., Biochemistry 33:10229-10248 (1994); Springer, B. A. et al., J. Biol. Chem. 269:26879-26884 (1994)). Recombinant aFGF was then purified by heparin-sepharose affinity chromatography as described (Thompson, L. D. et al., Biochemistry 33:3831-3840 (1994)). aFGF is also known to bind heparin/heparan, which is a cofactor for mitogenic activity. […] A microplate thermal assay of these compounds was set up in a way similar to that described above for human α-thrombin. […] The affinity constants covered a fairly broad range of binding affinities, with pentosan PSO4 showing the highest affinity.

[3] = system: D(II) domain of fibroblast growth factor receptor 1 (FGFR1); assay: Microplate thermal shift assay for ligands binding to D(II) FGFR1, fluorescence emission signal; set-up: species or system human; details: D(II) FGFR1 70 μM; 136 μM ANS; ligand 150-156 μM
Text: The microplate thermal-shift assay was employed to test the binding of heparin 5000 and pentosan PSO4 to the known heparin binding site in the D(II) domain of fibroblast growth factor receptor 1 (FGFR1). D(II) FGFR1 is a 124 residue domain which is responsible for most of the free energy of binding for bFGF. D(II) FGFR1 was cloned and expressed in E. coli. Recombinant D(II) FGFR1 was renatured from inclusion bodies essentially as described (Wetmore, D. R. et al., Proc. Soc. Mtg., San Diego, Calif. (1994)), except that a hexa-histidine tag was included at the N-terminus to facilitate recovery by affinity chromatography on a Ni^2+ chelate column (Janknecht, R. et al., Natl. Acad. Sci. USA 88:8972-8976 (1991)). D(II) FGFR1 was further purified on a heparin-sepharose column (Kan, M. et al., Science 259:1918-1921 (1993); Pantoliano, M. W. et al., Biochemistry 33:10229-10248 (1994)). […]
The D(II) FGFR1 protein was dissolved in an ANS solution to a concentration of 1.0 mg/mL (70 μM). […] Because ANS fluorescence is very environment dependent (see Lakowicz, I. R., Principles of Fluorescence Spectroscopy, Plenum Press, New York (1983)), the quantum yield observed for the denaturation of different proteins will vary. […] A similar result was obtained for Factor Xa, except that the fluorescence quantum yield for ANS bound to denatured Factor Xa was almost as good as it was for human α-thrombin.

bFGF = bFGF (Homo sapiens, UniProt P09038); details: read-out: affinity for binding to bFGF by isothermal titrating calorimetry; cited from earlier work
[4] = many described as coagulation anomalies; cited from earlier work

D(II) domain of fibroblast growth factor receptor 1 (FGFR1), sequence (P11362 158-246 limits assumed): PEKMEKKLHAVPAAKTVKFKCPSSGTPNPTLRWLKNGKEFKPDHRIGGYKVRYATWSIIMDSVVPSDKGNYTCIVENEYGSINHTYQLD
T2 sequence (P05230 whole entry, species assumed): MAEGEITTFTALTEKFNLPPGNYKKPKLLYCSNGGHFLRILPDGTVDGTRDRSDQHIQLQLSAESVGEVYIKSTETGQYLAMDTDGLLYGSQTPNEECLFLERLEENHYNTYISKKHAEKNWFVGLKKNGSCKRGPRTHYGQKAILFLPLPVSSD
bFGF, sequence (P09038 134-288): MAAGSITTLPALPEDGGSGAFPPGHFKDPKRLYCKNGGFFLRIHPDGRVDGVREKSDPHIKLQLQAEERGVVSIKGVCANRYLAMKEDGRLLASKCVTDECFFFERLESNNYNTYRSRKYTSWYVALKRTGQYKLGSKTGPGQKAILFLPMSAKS

- affinity at Tm higher than the affinity of heparin 5000 ([1]; thermal shift assay, Table 4): 7 fold
- Tm ([1]; turbidity signal, 11 μM thrombin, ligand 40-102 μM): 332.15 °K
- Tm [2]: 336.15 °K
- Tm [3]: 319.4 °K
Substance: pentosan polysulfate [Pentosan PSO4]
- Kd (bFGF): 88 nM
- outcome of clinical trials for antiangiogenic activity [4]: discounted due to toxic effects
